US7371737B2, “2-substituted-6-trifluoromethyl purine derivatives with adenosine-A3 antagonistic activity” (Solvay Pharmaceuticals, B.V., priority 2004, dated 2008)

Assays:
[1] = biological target: T1, human adenosine-A2A receptors (Homo sapiens, UniProt P29274); test: In vitro affinity for human adenosine-A2A receptors (radioligand [3H]CGS 21680); type: binding; details: human recombinant receptors expressed in HEK-293 cells; for Ki: read-out: Adenosine receptor affinity (binding) A2A pKi (converted)
T1 construct: expressed in transfected cells; host or cells: HEK-293 cells
Description: Affinity of the compounds for human adenosine-A2A receptors was determined using the receptor binding assay described by D. R. Luthin et al., (Mol. Pharmacol., 47, 307, 1995), using human recombinant receptors expressed in HEK-293 cells, and [^3H]CGS 21680 as radioligand.

[2] = biological target: T2, human Adenosine A3 receptor (Homo sapiens, UniProt P0DMS8); test: In vitro affinity for human adenosine-A3 receptors (radioligand [125I]-AB-MECA); type: binding; design: expressed in transfected cells; host or cells: HEK 293 cells (membrane preparations); details: membranes of HEK 293 cells stably expressing human A3, [125I]-AB-MECA, 22° C., 90 minutes; read-out: Adenosine receptor affinity (binding) A3 pKi (converted)
T2 sequence (P0DMS8 1-318): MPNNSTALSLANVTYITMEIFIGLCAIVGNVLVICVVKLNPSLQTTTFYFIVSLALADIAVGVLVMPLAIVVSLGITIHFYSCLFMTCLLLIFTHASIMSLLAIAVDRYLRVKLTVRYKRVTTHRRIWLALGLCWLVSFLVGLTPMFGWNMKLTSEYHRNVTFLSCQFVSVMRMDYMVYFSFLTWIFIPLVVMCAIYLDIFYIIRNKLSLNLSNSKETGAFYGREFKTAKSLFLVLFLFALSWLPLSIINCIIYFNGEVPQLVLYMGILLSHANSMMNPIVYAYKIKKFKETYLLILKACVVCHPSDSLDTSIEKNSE
Description: Affinity of the compounds for human adenosine-A3 receptors was determined using the receptor binding assay described by C. A. Salvatore et al.: “Molecular cloning and characterization of the human A3 adenosine receptor”, Proc. Natl. Acad. Sci. USA, 90, 10365-10369, 1993. Briefly, membrane preparations were obtained from human recombinant (HEK 293) cells in which the human adenosine-A3 receptor was stably expressed. […] Separation of bound radioactivity from free was done by filtration through Packard GF/B glass fiber filters with several washings with ice-cold buffer using a Packard cell harvester. Bound radioactivity was measured with a scintillation counter (Topcount, Packard) using a liquid scintillation cocktail (Microscint 0, Packard). […] Determination of In Vitro Functional Activity on Human Adenosine A3 Receptors Using an Aequorin-based Assay

[3] = biological target: T2, human Adenosine A3 receptor; test: In vitro functional activity on human adenosine A3 receptors using an Aequorin-based assay; type: cell-based; design: A. et al. (Acc. Number GenBank: L22607); host or cells: CHO-K1 cells stably expressing mitochondrially targeted aequorin and Galpha16; details: hA3-Aequorin CHO-K1 cells; for Kb: read-out: Functional activity A3 antagonism pA2 (converted); for EC50: agonist mode, concentrations up to 10^−5 M, read-out: Functional activity A3 agonism pEC50 (converted)
From the text: A stable monoclonal hA3-Aequorin cell line was provided by Euroscreen. The coding region encoding the human Adenosine A3 receptor was amplified by polymerase chain reaction (PCR), using human lung cDNA as template. The PCR product was ligated in the expression vector pEFIN3 (Invitrogen), and the complete sequence of the insert was then established. […] A. et al. (Acc. Number GenBank: L22607). The expression plasmid containing the coding sequence of the human Adenosine A3 receptor was transfected in CHO-K1 cells stably expressing mitochondrially targetted Aequorin and Gα16. Resistant clones were selected in the presence of 400 μg/ml G418 and isolated by limiting dilution. […] The hA3-Aequorin cells express mitochondrially targetted apo-Aequorin. Cells have to be loaded with coelenterazine, in order to reconstitute active Aequorin. After binding of agonists to the hA3 receptor, the intracellular calcium concentration increases, which leads to a luminescent response. Binding of calcium to the apo-Aequorin/coelenterazine complex leads to an oxidation reaction of coelenterazine, which results in the production of apo-Aequorin, coelenteramide, CO2 and light (λmax 469 nm). This luminescent response is dependent on the agonist concentration.
Assay-protocol: • Dilute the loaded cells 18× in Dulbecco's medium without PhenolRed (Gibco BRL), pre-heated to 37° C., resulting in a concentration of 2.8*10^5 cells/ml. • Stir for 1 hour at room temperature. • Add 10 μl compound or control per well in white 96-well plates. • Add 90 μl of diluted cells (2.5*10^4 cells/well). • Measure chemoluminescence immediately for 20 seconds. • In antagonist mode 50 μl 10^−6 N6-benzyl-NECA is added as the agonist. • Measure chemoluminescence immediately for 20 seconds using the MicroBetaJet (PerkinElmer).

[4] = biological target: T3, human adenosine-A2B receptors (Homo sapiens, UniProt P29275); test: In vitro affinity for human adenosine-A2B receptors (radioligand [3H]MRS 1754); type: binding; details: human recombinant receptors expressed in HEK-293 cells; for Ki: read-out: Adenosine receptor affinity (binding) A2B pKi (converted)
T3 construct: expressed in transfected cells; host or cells: HEK-293 cells
T3 sequence (P29275 1-332): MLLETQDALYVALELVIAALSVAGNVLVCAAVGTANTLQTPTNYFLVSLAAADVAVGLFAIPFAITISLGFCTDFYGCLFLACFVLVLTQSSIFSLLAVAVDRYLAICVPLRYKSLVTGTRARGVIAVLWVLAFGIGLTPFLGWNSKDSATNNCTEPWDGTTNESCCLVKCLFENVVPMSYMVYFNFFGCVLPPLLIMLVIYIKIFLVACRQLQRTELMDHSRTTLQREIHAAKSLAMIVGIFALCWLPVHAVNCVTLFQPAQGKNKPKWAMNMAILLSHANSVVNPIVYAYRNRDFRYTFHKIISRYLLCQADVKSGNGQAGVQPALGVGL
Description: Affinity of the compounds for human adenosine-A2B receptors was determined using the receptor binding assay described by J. H. Stehle et al. (Mol. Endocrinol., 6, 384, 1992), using human recombinant receptors expressed in HEK-293 cells, and [^3H]MRS 1754 as radioligand.

[5] = biological target: T4, human adenosine-A1 receptors (Homo sapiens, UniProt P30542); test: In vitro affinity for human adenosine-A1 receptors (radioligand [3H]DPCPX); type: binding; details: human recombinant receptors expressed in CHO cells; for Ki: read-out: Adenosine receptor affinity (binding) A1 pKi (converted)
T4 construct: expressed in transfected cells; host or cells: CHO cells
T4 sequence (P30542 1-326): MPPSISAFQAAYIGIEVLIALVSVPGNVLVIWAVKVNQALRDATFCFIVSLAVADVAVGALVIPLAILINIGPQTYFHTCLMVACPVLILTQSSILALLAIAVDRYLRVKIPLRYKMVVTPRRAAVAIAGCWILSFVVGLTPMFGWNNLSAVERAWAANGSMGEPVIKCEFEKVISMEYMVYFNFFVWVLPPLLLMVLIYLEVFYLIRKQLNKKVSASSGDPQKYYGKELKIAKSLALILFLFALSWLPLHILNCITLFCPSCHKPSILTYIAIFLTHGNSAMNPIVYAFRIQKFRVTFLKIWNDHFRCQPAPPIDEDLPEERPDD
Description: Affinity of the compounds for human adenosine-A1 receptors was determined using the receptor binding assay described by A. Townsend-Nicholson and P. R. Schofield (Biol. Chem., 269, 2373, 1994), using human recombinant receptors expressed in CHO cells, and [^3H]DPCPX as radioligand.

[6] = antagonist mode, N6-benzyl-NECA as the agonist

T1 sequence (P29274 whole entry): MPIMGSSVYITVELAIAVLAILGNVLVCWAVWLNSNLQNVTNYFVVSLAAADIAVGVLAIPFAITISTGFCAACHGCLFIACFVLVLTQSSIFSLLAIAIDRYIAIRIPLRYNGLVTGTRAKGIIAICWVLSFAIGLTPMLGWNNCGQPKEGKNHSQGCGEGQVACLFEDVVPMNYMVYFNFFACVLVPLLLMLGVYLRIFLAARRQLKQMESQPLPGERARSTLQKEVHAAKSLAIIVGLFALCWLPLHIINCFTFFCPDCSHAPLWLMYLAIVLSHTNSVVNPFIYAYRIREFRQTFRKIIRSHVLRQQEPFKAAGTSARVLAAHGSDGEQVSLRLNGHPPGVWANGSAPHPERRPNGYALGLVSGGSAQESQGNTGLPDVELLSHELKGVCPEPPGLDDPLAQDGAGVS

SMILES: OC[C@H]1O[C@@H](n2cnc3c(C(F)(F)F)nc(NCc4ccccc4)nc32)[C@H](O)[C@@H]1O [Compound 8, 2-benzylamino-6-trifluoromethyl-9-β-D-ribofuranosyl purine]
- Ki [1]: 12.6 µM
- Ki [2]: 0.316 µM
- Kb [3, 6]: 0.0398 µM
- Ki [4]: > 10 µM
- Ki [5]: 7.94 µM

SMILES: Cn1cnc2c(C(F)(F)F)nc(NCc3ccccc3)nc21 [Compound 7, 6-trifluoromethyl-9-methyl-2-benzylamino purine]
- Ki [1]: > 10 µM
- Ki [2]: 3.16 µM
- EC50 [3]: > 10 µM
- Kb [3, 6]: 1.58 µM
- Ki [4]: > 10 µM
- Ki [5]: > 10 µM

SMILES: FC(F)(F)c1nc(NCc2ccccc2)nc2nc[nH]c12 [Compound 6, 6-trifluoromethyl-2-benzylamino purine]
- Ki [1]: 20 µM
- Ki [2]: 0.02 µM
- EC50 [3]: > 10 µM
- Kb [3, 6]: 0.158 µM
- Ki [4]: > 10 µM
- Ki [5]: 3.98 µM

SMILES: OC[C@H]1O[C@@H](n2cnc3c(C(F)(F)F)nc(NCCc4ccccc4)nc32)[C@H](O)[C@@H]1O [Compound 26, 2-phenethylamino-6-CF3-9-β-D-ribofuranosyl purine]
- Adenosine receptor affinity (binding) A2A pKi [1]: <5.0
- Functional activity A3 antagonism pA2 [3, 6]: 9.8
- Adenosine receptor affinity (binding) A2B pKi [4]: <5.0
- Adenosine receptor affinity (binding) A1 pKi [5]: <5.0

SMILES: Cn1cnc2c(C(F)(F)F)nc(NCCc3ccccc3)nc21 [Compound 10, 6-trifluoromethyl-9-methyl-2-phenethylamino purine]
- Ki [1]: 15.8 µM
- Ki [2]: 1.58 µM
- EC50 [3]: > 10 µM
- Kb [3, 6]: 3.16 µM
- Ki [4]: 12.6 µM
- Ki [5]: 6.31 µM

SMILES: Cn1c(Br)nc2c(C(F)(F)F)nc(NCCc3ccccc3)nc21 [Compound 11, 8-bromo-6-trifluoromethyl-9-methyl-2-phenethylamino purine]
- Ki [1]: > 10 µM
- Ki [2]: 1 µM
- melting point: 131 to 139 °C
- Ki [5]: > 10 µM

SMILES: FC(F)(F)c1nc(NCCc2ccccc2)nc2nc[nH]c12 [Compound 9, 6-trifluoromethyl-2-phenethylamino purine]
- Ki [1]: 12.6 µM
- Ki [2]: 0.0126 µM
- EC50 [3]: > 10 µM
- Kb [3, 6]: 0.002 µM
- Ki [4]: > 10 µM
- Ki [5]: 1 µM

SMILES: Cn1c(-c2cccs2)nc2c(C(F)(F)F)nc(NCCc3ccccc3)nc21 [Compound 14, 8-(thien-2-yl)-6-trifluoromethyl-9-methyl-2-phenethylamino purine]
- Ki [1]: > 10 µM
- Ki [2]: 1.58 µM
- EC50 [3]: > 10 µM
- Kb [3, 6]: 1.58 µM
- Ki [5]: 6.31 µM
